Assay results reported in ChEMBL document CHEMBL1153866, “Design, synthesis and evaluation of galanthamine derivatives as acetylcholinesterase inhibitors” (Eur J Med Chem, 2009).

Columns and labels:
Acetylcholinesterase = molecular target: T1, Acetylcholinesterase (Rattus norvegicus, UniProt P37136); assay: Inhibition of AChE from rat cortex homogenate by Ellmans method
T1 sequence (P37136 whole entry): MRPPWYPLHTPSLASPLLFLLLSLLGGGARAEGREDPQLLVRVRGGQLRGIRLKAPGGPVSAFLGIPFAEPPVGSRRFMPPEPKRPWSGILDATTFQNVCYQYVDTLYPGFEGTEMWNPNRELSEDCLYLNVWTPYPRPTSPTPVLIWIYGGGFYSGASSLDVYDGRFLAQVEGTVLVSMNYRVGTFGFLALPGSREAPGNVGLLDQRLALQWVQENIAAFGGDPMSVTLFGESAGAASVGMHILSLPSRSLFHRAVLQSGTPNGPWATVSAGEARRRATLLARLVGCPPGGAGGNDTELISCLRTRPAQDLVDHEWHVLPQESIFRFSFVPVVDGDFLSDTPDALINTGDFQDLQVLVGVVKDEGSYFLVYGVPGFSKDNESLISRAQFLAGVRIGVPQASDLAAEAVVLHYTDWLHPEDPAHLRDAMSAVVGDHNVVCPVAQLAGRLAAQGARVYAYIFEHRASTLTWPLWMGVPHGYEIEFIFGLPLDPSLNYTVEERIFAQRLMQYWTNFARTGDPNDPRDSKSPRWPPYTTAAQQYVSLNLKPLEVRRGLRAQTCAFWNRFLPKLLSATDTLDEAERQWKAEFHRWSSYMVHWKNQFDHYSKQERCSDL

Butyrylcholinesterase = Butyrylcholinesterase (Rattus norvegicus, UniProt Q9JKC1); assay: Inhibition of BChE from rat serum by Ellmans method; type: cell-free
Butyrylcholinesterase, sequence (Q9JKC1 whole entry): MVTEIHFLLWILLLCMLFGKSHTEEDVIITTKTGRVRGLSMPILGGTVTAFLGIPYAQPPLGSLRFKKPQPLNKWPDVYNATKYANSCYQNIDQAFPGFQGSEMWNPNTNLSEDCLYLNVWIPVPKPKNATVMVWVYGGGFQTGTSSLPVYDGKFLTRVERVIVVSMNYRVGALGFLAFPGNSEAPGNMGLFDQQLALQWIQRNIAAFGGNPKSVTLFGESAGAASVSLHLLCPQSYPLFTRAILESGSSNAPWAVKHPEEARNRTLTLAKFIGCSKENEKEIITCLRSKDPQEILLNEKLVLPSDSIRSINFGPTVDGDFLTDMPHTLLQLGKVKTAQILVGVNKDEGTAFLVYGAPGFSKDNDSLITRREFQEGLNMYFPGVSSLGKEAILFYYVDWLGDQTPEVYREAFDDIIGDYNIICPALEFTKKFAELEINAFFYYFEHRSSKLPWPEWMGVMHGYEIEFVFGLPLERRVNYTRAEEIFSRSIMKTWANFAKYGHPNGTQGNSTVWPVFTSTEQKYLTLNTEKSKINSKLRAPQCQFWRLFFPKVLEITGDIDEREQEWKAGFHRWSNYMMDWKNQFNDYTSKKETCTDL

| SMILES | IC50 (Acetylcholinesterase) | IC50 (Butyrylcholinesterase) |
| --- | --- | --- |
| COc1ccc2c3c1O[C@H]1C[C@@H](O)C=C[C@@]31CCN(CCCCCCOc1cccc(C(C)N3CCOCC3)c1)C2 (some centres not stated) | 154 nM | 5800 nM |
| COc1ccc2c3c1O[C@H]1C[C@@H](O)C=C[C@@]31CCN(CCCCCCCCCOc1ccc(CN3CCCCC3)cc1)C2 | 88.1 nM | 64000 nM |
| COc1ccc2c3c1O[C@H]1C[C@@H](O)C=C[C@@]31CCN(CCCCCCCCCCCCOc1ccc(CN3CCCCC3)cc1)C2 | 58.1 nM | 1200 nM |
| COc1ccc2c3c1O[C@H]1C[C@@H](O)C=C[C@@]31CCN(CCCCCCOc1ccc(CN3CCCCC3)cc1)C2 | 5.62 nM | 33000 nM |
| COc1ccc2c3c1O[C@H]1C[C@@H](O)C=C[C@@]31CCN(CCCCOc1cccc(C(C)N3CCOCC3)c1)C2 (some centres not stated) | 94.1 nM | 7100 nM |
| COc1ccc2c3c1O[C@H]1C[C@@H](O)C=C[C@@]31CCN(CCCCOc1ccc(C(=O)N3CCCC3)cc1)C2 | 53.8 nM | 5600 nM |
| COc1ccc2c3c1O[C@H]1C[C@@H](O)C=C[C@@]31CCN(CCCCOC1CCN(Cc3ccccc3)CC1)C2 | 306 nM | 4300 nM |
| COc1ccc2c3c1O[C@H]1C[C@@H](O)C=C[C@@]31CCN(CCCCCOc1ccc(CN3CCCCC3)cc1)C2 | – | 29000 nM |
| COc1ccc2c3c1O[C@H]1C[C@@H](O)C=C[C@@]31CCN(CCCCOc1ccc(CN3CCCCC3)cc1)C2 | 12.4 nM | 28000 nM |
| CCN(CC)Cc1ccc(OCCCCCCN2CC[C@@]34C=C[C@H](O)C[C@@H]3Oc3c(OC)ccc(c34)C2)cc1 | 8.86 nM | 41000 nM |
| COc1ccc2c3c1O[C@H]1C[C@@H](O)C=C[C@@]31CCN(CCCCCCCCOc1ccc(CN3CCCCC3)cc1)C2 | 34.7 nM | 53000 nM |
| COc1ccc2c3c1O[C@H]1C[C@@H](O)C=C[C@@]31CCN(CCCOc1ccc(CN3CCCCC3)cc1)C2 | 18 nM | 24000 nM |
| COc1ccc2c3c1O[C@H]1C[C@@H](O)C=C[C@@]31CCN(CCCCCCCCCCOc1ccc(CN3CCCCC3)cc1)C2 | 61.2 nM | 93000 nM |
| COc1ccc2c3c1O[C@H]1C[C@@H](O)C=C[C@@]31CCN(CCCCCCOc1ccc(C(=O)N3CCCC3)cc1)C2 | 122 nM | 9400 nM |
| COc1ccc2c3c1O[C@H]1C[C@@H](O)C=C[C@@]31CCN(CCCCCCOC1CCN(Cc3ccccc3)CC1)C2 | 222 nM | 5500 nM |
| COc1ccc2c3c1O[C@H]1C[C@@H](O)C=C[C@@]31CCN(CCCCCCOc1ccc(CN3CCOCC3)cc1)C2 | 113 nM | 3900 nM |
| CCN(CC)Cc1ccc(OCCCCN2CC[C@@]34C=C[C@H](O)C[C@@H]3Oc3c(OC)ccc(c34)C2)cc1 | 14.6 nM | 34000 nM |
| COc1ccc2c3c1O[C@H]1C[C@@H](O)C=C[C@@]31CCN(CCCCOc1ccc(CN3CCOCC3)cc1)C2 | 99.1 nM | 3300 nM |
| COc1ccc2c3c1O[C@H]1C[C@@H](O)C=C[C@@]31CCN(CCOc1ccc(CN3CCCCC3)cc1)C2 | 24.5 nM | 21000 nM |
